As usually defined, the half-life is how long it takes for the measured level to halve. Read a low half-life as fast loss.

*1 amine or outer side, *2 acyl side, *3 side chain or, on linkers, in order; H or OH if unused. Where a SMILES comes first, the peptide text is derived from it. Bridges are numbered along the chain shown (N, C = ends). [ ]: non-standard residue; d: D form. Phe(4-tBu) = CC(C)(C)c1ccc(C[C@H](N)C(=O)O)cc1; Bip = N[C@@H](Cc1ccc(-c2ccccc2)cc1)C(=O)O; NMeR = CN[C@@H](CCCNC(=N)N)C(=O)O; β3hE = N[C@@H](CCC(=O)O)CC(=O)O; X1 = O=C(c1ccccc1C[*:2])[*:1]; Pen = CC(C)(S)[C@H](N)C(=O)O

Data on six compounds can be found in US20260217767A1, “NOVEL A4B7 THIOETHER PEPTIDE DIMER ANTAGONISTS” (Protagonist Therapeutics, Inc., priority 2014, published 2026).

A short description of this series: Simulated Intestinal Fluid (SIF) Stability Assay. It is filed as in vitro ADME. The following applies: pig, 37° C., monomers, Table 6; for half-life at 22 μM: simulated intestinal fluid (SIF) with 1% porcine pancreatin, pH 6.5, porcine pancreatin; for half-life: porcine pancreatin. In a few lines:
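Peptide at 22 μM final was incubated at 37° C in blank FaSSIF pH 6.5 with 1% porcine pancreatin. Timed samples were quenched in acetonitrile/methanol/formic acid with internal standard and analysed by LC-MS/MS. Half-lives came from first-order exponential fits of percent remaining.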

On to `CC(C)C[C@@H]1NC(=O)[C@H]([C@@H](C)O)NC(=O)[C@H](CC(=O)O)NC(=O)[C@H](CO)NC(=O)[C@H](CCCNC(=N)N)N(C)C(=O)c2ccccc2CSC(C)(C)[C@@H](C(=O)N[C@@H](Cc2cccc3ccccc23)C(=O)N[C@H](CCC(=O)O)C(=O)N(C)[C@@H](CCCCN)C(N)=O)NC1=O` [compound 69] (HELM PEPTIDE1{[meR].S.D.T.L.[Pen].[O=C([C@H](Cc1cccc2ccccc12)N[*:1])[*:2]].[dE].[meK].[am]}|CHEM1{[O=C(c1ccccc1C[*:2])[*:1]]}$PEPTIDE1,CHEM1,1:R1-1:R1|PEPTIDE1,CHEM1,6:R3-1:R2$$$V2.0), for which the half-life at 22 μM was > 3 h.

As to `CC(C)C[C@@H]1NC(=O)[C@H]([C@@H](C)O)NC(=O)[C@H](CC(=O)O)NC(=O)[C@H](CO)NC(=O)[C@H](CCCNC(=N)N)N(C)C(=O)c2ccccc2CSC(C)(C)[C@@H](C(=O)N[C@@H](Cc2c[nH]c3ccccc23)C(=O)N[C@H](CCC(=O)O)C(=O)N[C@@H](CN)C(N)=O)NC1=O` [compound 94] (HELM PEPTIDE1{[meR].S.D.T.L.[Pen].W.[dE].[NC[C@H](N[*:1])C(=O)[*:2]].[am]}|CHEM1{[O=C(c1ccccc1C[*:2])[*:1]]}$PEPTIDE1,CHEM1,1:R1-1:R1|PEPTIDE1,CHEM1,6:R3-1:R2$$$V2.0), the half-life was > 3 h.

Take `CC(C)C[C@@H]1NC(=O)[C@H]([C@@H](C)O)NC(=O)[C@H](CC(=O)O)NC(=O)[C@H](CO)NC(=O)[C@H](CCCNC(=N)N)N(C)C(=O)c2ccccc2CSC(C)(C)[C@@H](C(=O)N[C@@H](Cc2c[nH]c3ccccc23)C(=O)N[C@H](CCC(=O)O)C(=O)N[C@@H](CCN)C(N)=O)NC1=O` [compound 95] (HELM PEPTIDE1{[meR].S.D.T.L.[Pen].W.[dE].[Dab].[am]}|CHEM1{[O=C(c1ccccc1C[*:2])[*:1]]}$PEPTIDE1,CHEM1,1:R1-1:R1|PEPTIDE1,CHEM1,6:R3-1:R2$$$V2.0): the half-life was > 3 h. In the case of `CC(C)C[C@@H]1NC(=O)[C@H]([C@@H](C)O)NC(=O)[C@H](CC(=O)O)NC(=O)[C@H](CO)NC(=O)[C@H](CCCNC(=N)N)N(C)C(=O)c2ccccc2CSC(C)(C)[C@@H](C(=O)N[C@@H](Cc2c[nH]c3ccccc23)C(=O)N[C@@H](CCC(=O)O)C(N)=O)NC1=O` [compound 96] (HELM PEPTIDE1{[meR].S.D.T.L.[Pen].W.E.[am]}|CHEM1{[O=C(c1ccccc1C[*:2])[*:1]]}$PEPTIDE1,CHEM1,1:R1-1:R1|PEPTIDE1,CHEM1,6:R3-1:R2$$$V2.0), the half-life at 22 μM was 0.433 h. The same measure, in the same setting: for `CC(C)C[C@@H]1NC(=O)[C@H]([C@@H](C)O)NC(=O)[C@H](CC(=O)O)NC(=O)[C@H](CO)NC(=O)[C@H](CCCNC(=N)N)N(C)C(=O)c2ccccc2CSC(C)(C)[C@@H](C(=O)N[C@@H](Cc2ccc(-c3ccccc3)cc2)C(=O)N[C@@H](CCC(=O)O)CC(N)=O)NC1=O` [compound 133] ([NMeR]SDTL[Pen][Bip][β3hE]-NH2; linker N-6 via X1) the value was > 3 h; for `CC(C)C[C@@H]1NC(=O)[C@H]([C@@H](C)O)NC(=O)[C@H](CC(=O)O)NC(=O)[C@H](CO)NC(=O)[C@H](CCCNC(=N)N)N(C)C(=O)c2ccccc2CSC(C)(C)[C@@H](C(=O)N[C@@H](Cc2ccc(C(C)(C)C)cc2)C(=O)N[C@@H](CCC(=O)O)CC(N)=O)NC1=O` [compound 134] ([NMeR]SDTL[Pen][Phe(4-tBu)][β3hE]-NH2; linker N-6 via X1), > 3 h.
